Source: patent publication US9187458B2, “Cyanoquinoline derivatives” (Tianjin Hemay Bio-Tech Co., LTD., priority 2010, dated 2015)

Tests used:
A549 cells = assay: A549 Cell Growth Inhibition Test (MTT Assay); format: cell-based; conditions: Homo sapiens, 72 h incubation
Description: A549 Cell Growth Inhibition Test (MTT Assay)
1. Cell strains: […] (human lung caner cell strains);
Culture medium: 90% F12K+10% FBS;
(§1) 1. A plate (10 cm) of cells in logarithmic growth phase normally cultured was collected;
2. The culture solution was sucked out. Tthe plate was washed with 5 ml of PBS 1-2 times;
(§2) 3. PBS was sucked out. 2 ml of 0.25% pancreatin was added to infiltrate the cells for 1 min;
4. The pancreatin was sucked out. The culture plate was placed in an incubator. Digestion was carried out for about 2 min at 37° C.;
(§3) 5. 4 ml of complete culture solution was added to the culture plate to stop the digestion. The cells were carefully scoured with micropipette (1 ml) to give a uniform cell suspension. The suspension was implanted into a 96-well cell culture plate by 2500 cells/100 μl per well. The culture plate was incubated overnight under 5% CO2 at 37° C. In day 2, 100 μl of culture solution comprising a compound was added in each well, and further incubated for 72 h under 5% CO2 at 37° C.
(§4) 6. The culture solution was sucked out;
(§5) 7. 100 μl of serum-free culture solution containing 0.5 mg/ml MTT was added in each well, and incubated for 3 h;
(§6) 8. The culture solution was carefully sucked out;
(§7) 9. 100 μl of DMSO was added in each well and vibrated to dissolve;
(§8) 10. OD values were determined at 490 nM.
(§9) 1. Calculation of Relative Inhibition Ratio The inhibition ratio of a compound on cell growth=(PC−n)/(PC−NC)×100%
(§10) IC50: Concentration of a compound where inhibition ratio was 50%. IC50 values were fitted with Origin7.5.

LoVo cells = assay: LoVo Cell Growth Inhibition Test (MTT Assay); format: cell-based; conditions: Homo sapiens, 72 h incubation
Description: LoVo Cell Growth Inhibition Test (MTT Assay)
1. Cell strains: LoVo (human intestinal cancer cell strains);
as §1
(§11) 2. The culture solution was sucked out. The plate was washed with 5 ml of PBS 1-2 times;
as §2
4. The pancreatin was sucked out. The culture plate was placed in an incubator. Digestion was carried out for about 4 min at 37° C.;
as §3, with “added in” for “added to”, “by 3000-4000” for “by 2500”, “added into” for “added in”
as §4
7. 100 μl of serum-free culture solution containing 0.5 mg/ml MTT was added in each well, and incubated for 4 h;
as §6, §7, §8, §9, §10

BT-474 cells = assay: BT-474 Cell Growth Inhibition Test (SRB Assay); format: cell-based, human; conditions: 70 h incubation; for IC50 / inhibition at 1 µM: Homo sapiens; for inhibition at 1 µM: BT-474, 70 h, read-out: Growth Inhibition Ratio (%)
Procedure, shortened: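 Human breast tumour BT-474 cells (1×10^5/ml seeding, overnight) exposed to compound 70 h at 37 °C, 5% CO2; TCA-fixed, SRB-stained, dye dissolved in 10 mM Tris and OD read at 570 nm. Inhibition ratio = (PC−n)/(PC−NC)×100%; IC50 is the concentration giving 50% inhibition, from fitted curves.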

NCI-H460 cells = assay: NCI-H460 Cell Growth Inhibition Test (MTT Assay); format: cell-based; conditions: Homo sapiens, 72 h incubation
Procedure, shortened: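 Cells seeded at 2500 per well, left overnight, then exposed to compound for 72 h at 37 °C, 5% CO2. Viability by MTT (0.5 mg/ml, 3 h), DMSO-dissolved, OD 490 nm; inhibition ratio = (PC−n)/(PC−NC)×100%, IC50 from curve fit.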

Fadu cells = assay: Fadu Cell Growth Inhibition Test (MTT Assay); format: cell-based; conditions: Homo sapiens, 72 h incubation
Procedure, shortened: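 Fadu head and neck cancer cells in EMEM + 10% FBS, 6000 cells/well, dosed next day and incubated 72 h at 37 °C, 5% CO2. MTT 0.5 mg/ml for 3 h, DMSO solubilization, OD at 490 nm; inhibition ratio from positive and negative controls, IC50 from fitted curve.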

AsPC-1 cells = assay: AsPC-1 Cell Growth Inhibition Test (MTT Assay); format: cell-based; conditions: Homo sapiens, ASPC1, 72 h incubation
Description: AsPC-1 Cell Growth Inhibition Test (MTT Assay)
Cell strains: AsPC-1 (human pancreatic cancer cell strains);
as §1, §11
3. PBS was sucked out. 1.5 ml of 0.25% pancreatin was added to infiltrate the cells for 1 min;
4. The pancreatin was sucked out. The culture plate was placed in an incubator. Digestion was carried out for about 7.5 min at 37° C.;
as §3, with “4.5” for “4”, “8000” for “2500”
as §4, §5, §6
9. 100 μl of DMSO was added in each welland vibrated to dissolve;
as §8, §9, §10

SMILES | IC50 (A549 cells) [nM] | IC50 (LoVo cells) [nM] | IC50 (BT-474 cells) [nM] | IC50 (NCI-H460 cells) [nM] | IC50 (AsPC-1 cells) [nM] | Growth Inhibition Ratio (%) (BT-474 cells; compound 1 μM) | IC50 (Fadu cells) [nM] | inhibition at 1 µM (BT-474 cells; compound 1 μM) [%]
C#Cc1cccc(Nc2c(C#N)cnc3cc(OC4CCOC4)c(NC(=O)/C=C/CN(C)C)cc23)c1 (stereo not shown) [Example 5, (E)-N-(3-CYANO-4-(3-ETHYNYLPHENYLAMINO)-7-(TETRAHYDROFURAN-3-YL-OXY)QUINOLIN-6-YL)-4-(DIMETHYLAMINO)-BUT-2-ENAMIDE] | 1300 | 8570 | 41 | 1200 | – | 85 | – | –
CN(C)C/C=C/C(=O)Nc1cc2c(Nc3cccc(Br)c3)c(C#N)cnc2cc1OC1CCOC1 (stereo not shown) [Example 7, (E)-N-(4-(3-BROMOPHENYLAMINO)-3-CYANO-7-(TETRAHYDROFURAN-3-YL-OXY)QUINOLIN-6-YL)-4-(DIMETHYLAMINO)-BUT-2-ENAMIDE] | 3000 | 7000 | 309 | 940 | – | – | 474 | –
C#Cc1cccc(Nc2c(C#N)cnc3cc(O[C@H]4CCOC4)c(NC(=O)/C=C/CN(C)C)cc23)c1 [Example 140, (S,E)-N-(3-CYANO-4-(3-ETHYNYLPHENYLAMINO)-7-(TETRAHYDROFURAN-3-YL-OXY)QUINOLIN-6-YL)-4-(DIMETHYLAMINO)-BUT-2-ENAMIDE] | 1600 | 8800 | 33 | 1100 | – | – | – | 85
C#Cc1cccc(Nc2c(C#N)cnc3cc(O[C@@H]4CCOC4)c(NC(=O)/C=C/CN(C)C)cc23)c1 [Example 141, (R,E)-N-(3-CYANO-4-(3-ETHYNYLPHENYLAMINO)-7-(TETRAHYDROFURAN-3-YL-OXY)QUINOLIN-6-YL)-4-(DIMETHYLAMINO)-BUT-2-ENAMIDE] | 800 | 7630 | 96 | 2900 | – | – | – | 89
C#Cc1cccc(Nc2c(C#N)cnc3cc(O[C@H]4CCOC4)c(NC(=O)/C=C/CN(CC)CC)cc23)c1 [Example 143, (S,E)-N-(3-CYANO-4-(3-ETHYNYLPHENYLAMINO)-7-(TETRAHYDROFURAN-3-YL-OXY)QUINOLIN-6-YL)-4-(DIETHYLAMINO)-BUT-2-ENAMIDE] | 1500 | 7500 | 149 | – | – | – | 127 | 87
C#Cc1cccc(Nc2c(C#N)cnc3cc(O[C@H]4CCOC4)c(NC(=O)/C=C/CN4CCCCC4)cc23)c1 [Example 144, (S,E)-N-(3-CYANO-4-(3-ETHYNYLPHENYLAMINO)-7-(TETRAHYDROFURAN-3-YL-OXY)QUINOLIN-6-YL)-4-(PIPERIDIN-1-YL)-BUT-2-ENAMIDE] | 1000 | 3300 | 129 | – | – | – | 103 | –
C#Cc1cccc(Nc2c(C#N)cnc3cc(O[C@H]4CCOC4)c(NC(=O)/C=C/CN4CCOCC4)cc23)c1 [Example 145, (S,E)-N-(3-CYANO-4-(3-ETHYNYLPHENYLAMINO)-7-(TETRAHYDROFURAN-3-YL-OXY)QUINOLIN-6-YL)-4-(MORPHOLIN-4-YL)-BUT-2-ENAMIDE] | 6700 | – | 654 | – | – | – | 194 | 75
C#Cc1cccc(Nc2c(C#N)cnc3cc(O[C@H]4CCOC4)c(NC(=O)/C=C/CNC(C)(C)C)cc23)c1 [Example 146, (S,E)-N-(3-CYANO-4-(3-ETHYNYLPHENYLAMINO)-7-(TETRAHYDROFURAN-3-YL-OXY)QUINOLIN-6-YL)-4-(TERT-BUTYLAIMINO)-BUT-2-ENAMIDE] | 7000 | – | 236 | – | – | – | 200 | –
C#Cc1cccc(Nc2c(C#N)cnc3cc(O[C@H]4CCOC4)c(NC(=O)/C=C/CN(C)Cc4ccccc4)cc23)c1 [Example 149, (S,E)-N-(3-CYANO-4-(3-ETHYNYLPHENYLAMINO)-7-(TETRAHYDROFURAN-3-YL-OXY)QUINOLIN-6-YL)-4-(N-METHYLBENZYLAMINO)-BUT-2-ENAMIDE] | – | 2300 | 212 | – | – | – | 163 | 79
CCN(CC)C/C=C/C(=O)Nc1cc2c(Nc3ccc(OCc4ccccn4)c(Cl)c3)c(C#N)cnc2cc1O[C@H]1CCOC1 [Example 150, (S,E)-N-(4-(3-CHLORO-4-(PYRIDIN-2-YL-METHOXY)PHENYLAMINO)-3-CYANO-7-(TETRAHYDROFURAN-3-YL-OXY)QUINOLIN-6-YL)-4-(DIETHYLAMINO)-BUT-2-ENAMIDE] | 3800 | 2200 | 4.9 | – | 895 | – | 207 | 82

Now from value to compound, other results behind:

IC50 (A549 cells) [nM] | IC50 (LoVo cells) [nM] | IC50 (BT-474 cells) [nM] | IC50 (NCI-H460 cells) [nM] | IC50 (AsPC-1 cells) [nM] | SMILES | Growth Inhibition Ratio (%) (BT-474 cells; compound 1 μM) | IC50 (Fadu cells) [nM] | inhibition at 1 µM (BT-474 cells; compound 1 μM) [%]
900 | 2000 | 3.6 | 2700 | – | CN(C)C/C=C/C(=O)Nc1cc2c(Nc3ccc(OCc4ccccn4)c(Cl)c3)c(C#N)cnc2cc1OC1CCOC1 (stereo not shown) [Example 21, (E)-N-(4-(3-CHLORO-4-(PYRIDIN-2-YL-METHOXY)PHENYLAMINO)-3-CYANO-7-(TETRAHYDROFURAN-3-YL-OXY)QUINOLIN-6-YL)-4-(DIMETHYLAMINO)-BUT-2-ENAMIDE] | – | – | –
600 | 2200 | 3.9 | – | 422 | CN(C)C/C=C/C(=O)Nc1cc2c(Nc3ccc(OCc4ccccn4)c(Cl)c3)c(C#N)cnc2cc1O[C@@H]1CCOC1 [Example 139, (R,E)-N-(4-(3-CHLORO-4-(PYRIDIN-2-YL-METHOXY)PHENYLAMINO)-3-CYANO-7-(TETRAHYDROFURAN-3-YL-OXY)QUINOLIN-6-YL)-4-(DIMETHYLAMINO)-BUT-2-ENAMIDE] | – | 201 | 81
3700 | 1900 | 6.5 | – | 810 | N#Cc1cnc2cc(O[C@H]3CCOC3)c(NC(=O)/C=C/CN3CCCCC3)cc2c1Nc1ccc(OCc2ccccn2)c(Cl)c1 [Example 151, (S,E)-N-(4-(3-CHLORO-4-(PYRIDIN-2-YL-METHOXY)PHENYLAMINO)-3-CYANO-7-(TETRAHYDROFURAN-3-YL-OXY)QUINOLIN-6-YL)-4-(PIPERIDIN-1-YL)-BUT-2-ENAMIDE] | – | 244 | 80
– | 6600 | 10.4 | – | – | N#Cc1cnc2cc(O[C@H]3CCOC3)c(NC(=O)/C=C/CN3CCOCC3)cc2c1Nc1ccc(OCc2ccccn2)c(Cl)c1 [Example 152, (S,E)-N-(4-(3-CHLORO-4-(PYRIDIN-2-YL-METHOXY)PHENYLAMINO)-3-CYANO-7-(TETRAHYDROFURAN-3-YL-OXY)QUINOLIN-6-YL)-4-(MORPHOLIN-4-YL)-BUT-2-ENAMIDE] | – | 170 | 78
6400 | 5600 | 7.2 | – | – | CC(C)(C)NC/C=C/C(=O)Nc1cc2c(Nc3ccc(OCc4ccccn4)c(Cl)c3)c(C#N)cnc2cc1O[C@H]1CCOC1 [Example 153, (S,E)-N-(4-(3-CHLORO-4-(PYRIDIN-2-YL-METHOXY)PHENYLAMINO)-3-CYANO-7-(TETRAHYDROFURAN-3-YL-OXY)QUINOLIN-6-YL)-4-(TERT-BUTYLAMINO)-BUT-2-ENAMIDE] | – | 231 | –
